Test results reported in US12324802B2, “Modulators of cystic fibrosis transmembrane conductance regulator” (Vertex Pharmaceuticals Incorporated, priority 2020, dated 2025).
Read-outs that look alike come from different tables or passages of the source.

Conditions: rcm bond, DCE

Structure (SMILES): CC(C)(C)OC(=O)N(C(=O)OC(C)(C)C)c1cc(C(F)(F)F)c2nc1-c1nnc(o1)[C@@](OCc1ccccc1)(C(F)(F)F)CCC=CCC(c1ccccn1)N2 (mixture of isomers)
- ring closure, isolated yield (from C=CCC[C@@](OCc1ccccc1)(c1nnc(-c2nc(NC(CC=C)c3ccccn3)c(C(F)(F)F)cc2N(C(=O)OC(C)(C)C)C(=O)OC(C)(C)C)o1)C(F)(F)F, 14-membered ring, Zhan catalyst-1B, 1.5 mM, 85.0 °C, 12.0 h): 24%

Structure (SMILES): CC(C)(C)OC(=O)Nc1cc(C(F)(F)F)c2nc1-c1nnc(o1)C(OCc1ccccc1)(C(F)(F)F)CCC=CCC1CCCN21 (mixture of isomers)
- ring closure, isolated yield (from C=CCCC(OCc1ccccc1)(c1nnc(-c2nc(N3CCCC3CC=C)c(C(F)(F)F)cc2NC(=O)OC(C)(C)C)o1)C(F)(F)F, 14-membered ring, Grubbs II (21 mol%), 15.2 mM, 80.0 °C, 0.75 h): 84%

Structure (SMILES): CC(C)(C)OC(=O)Nc1cc(C(F)(F)F)c2nc1-c1nnc(o1)C(OCc1ccccc1)(C(F)(F)F)CCC=CC[C@@H]1CCCN21 (mixture of isomers)
- ring closure, isolated yield (from C=CCCC(OCc1ccccc1)(c1nnc(-c2nc(N3CCC[C@H]3CC=C)c(C(F)(F)F)cc2NC(=O)OC(C)(C)C)o1)C(F)(F)F, 14-membered ring, Zhan-1B (two charges), 7.07 mM, 70.0 °C, 20.0 h): 61%

Structure (SMILES): CC(C)(C)OC(=O)Nc1cc(C(F)(F)F)c2nc1-c1nnc(o1)C(OCc1ccccc1)CCC=CC[C@@H]1CCCN21 (mixture of isomers)
- ring closure, isolated yield (from C=CCCC(OCc1ccccc1)c1nnc(-c2nc(N3CCC[C@H]3CC=C)c(C(F)(F)F)cc2NC(=O)OC(C)(C)C)o1, 14-membered ring, Zhan-1B (15 mol%), 6.77 mM, 70.0 °C, 20.0 h): 6%

Structure (SMILES): CC(C)(C)OC(=O)Nc1cc(C(F)(F)F)c2nc1-c1nnc(o1)[C@@](OCc1ccccc1)(C(F)(F)F)CCC=CCC(C(=O)N1CCCC1)N2 (mixture of isomers)
- ring closure, isolated yield (from C=CCC[C@@](OCc1ccccc1)(c1nnc(-c2nc(NC(CC=C)C(=O)N3CCCC3)c(C(F)(F)F)cc2NC(=O)OC(C)(C)C)o1)C(F)(F)F, 14-membered ring, Zhan catalyst-1B, 1.4 mM, 75.0 °C, 2.0 h): 66%

Structure (SMILES): CC(C)N1CCC=CCCC(OCc2ccccc2)(C(F)(F)F)C2=NN=C(O2)c2nc1c(C(F)(F)F)cc2[N+](=O)[O-] (mixture of isomers)
- ring closure, isolated yield (from C=CCCN(c1nc(-c2nnc(C(CCC=C)(OCc3ccccc3)C(F)(F)F)o2)c([N+](=O)[O-])cc1C(F)(F)F)C(C)C, 14-membered ring, Zhan-1B, 2.53 mM, 75.0 °C, 3.0 h): 84%

Structure (SMILES): CC1(COCc2ccccc2)CC=CCC[C@](OCc2ccccc2)(C(F)(F)F)C2=NN=C(O2)c2nc(c(C(F)(F)F)cc2[N+](=O)[O-])N1 (mixture of isomers)
- ring closure, isolated yield (from C=CCC[C@@](OCc1ccccc1)(c1nnc(-c2nc(NC(C)(CC=C)COCc3ccccc3)c(C(F)(F)F)cc2[N+](=O)[O-])o1)C(F)(F)F, 14-membered ring, Zhan catalyst-1B, 2.83 mM, 60.0 °C, 3.17 h): 75%

Structure (SMILES): CC1CC=CCCC(OCc2ccccc2)(C(F)(F)F)C2=NN=C(O2)c2nc(c(C(F)(F)F)cc2[N+](=O)[O-])N1 (mixture of isomers)
- ring closure, isolated yield (from C=CCCC(OCc1ccccc1)(c1nnc(-c2nc(NC(C)CC=C)c(C(F)(F)F)cc2[N+](=O)[O-])o1)C(F)(F)F, 14-membered ring, Zhan-1B, 1.85 mM, 75.0 °C, 3.0 h): 61%

Structure (SMILES): CCOC(=O)C1CC=CCCC(OCc2ccccc2)(C(F)(F)F)C2=NN=C(O2)c2nc(c(C(F)(F)F)cc2[N+](=O)[O-])N1 (mixture of isomers)
- ring closure, isolated yield (from C=CCCC(OCc1ccccc1)(c1nnc(-c2nc(NC(CC=C)C(=O)OCC)c(C(F)(F)F)cc2[N+](=O)[O-])o1)C(F)(F)F, 14-membered ring, Zhan catalyst-1B, 3.41 mM, 75.0 °C, 2.0 h): 36%

Structure (SMILES): CCOC(=O)CN1CCC=CCCC(OCc2ccccc2)(C(F)(F)F)C2=NN=C(O2)c2nc1c(C(F)(F)F)cc2N(C(=O)OC(C)(C)C)C(=O)OC(C)(C)C (mixture of isomers)
- ring closure, isolated yield (from C=CCCN(CC(=O)OCC)c1nc(-c2nnc(C(CCC=C)(OCc3ccccc3)C(F)(F)F)o2)c(N(C(=O)OC(C)(C)C)C(=O)OC(C)(C)C)cc1C(F)(F)F, 14-membered ring, Zhan-1B, 2.3 mM, 75.0 °C, 2.0 h): 92%

Structure (SMILES): CN1CCC=CCCC(OCc2ccccc2)(C(F)(F)F)C2=NN=C(O2)c2nc1c(C(F)(F)F)cc2NC(=O)OC(C)(C)C (mixture of isomers)
- ring closure, isolated yield (from C=CCCN(C)c1nc(-c2nnc(C(CCC=C)(OCc3ccccc3)C(F)(F)F)o2)c(NC(=O)OC(C)(C)C)cc1C(F)(F)F, 14-membered ring, Zhan-1B (15 mol%), 6.34 mM, 70.0 °C, 2.0 h): 76%

Structure (SMILES): CN1CCC=CCCC(OCc2ccccc2)(C(F)(F)F)C2=NN=C(O2)c2nc1c(S(C)(=O)=O)cc2NC(=O)OC(C)(C)C (mixture of isomers)
- ring closure, isolated yield (from C=CCCN(C)c1nc(-c2nnc(C(CCC=C)(OCc3ccccc3)C(F)(F)F)o2)c(NC(=O)OC(C)(C)C)cc1S(C)(=O)=O, 14-membered ring, Zhan-1B (two charges), 4.01 mM, 70.0 °C, 14.0 h): 41%

Structure (SMILES): COCCN1CCC=CCCC(OCc2ccccc2)(C(F)(F)F)C2=NN=C(O2)c2nc1c(C(F)(F)F)cc2NC(=O)OC(C)(C)C (mixture of isomers)
- ring closure, isolated yield (from C=CCCN(CCOC)c1nc(-c2nnc(C(CCC=C)(OCc3ccccc3)C(F)(F)F)o2)c(NC(=O)OC(C)(C)C)cc1C(F)(F)F, 14-membered ring, Zhan-1B (19 mol%), 3.22 mM, 70.0 °C, 3.0 h): 60%

Structure (SMILES): COc1cc2nc(c1[N+](=O)[O-])-c1nnc(o1)C(OCc1ccccc1)(C(F)(F)F)CCC=CC[C@@H]1CCCN21 (mixture of isomers)
- ring closure, isolated yield (from C=CCCC(OCc1ccccc1)(c1nnc(-c2nc(N3CCC[C@H]3CC=C)cc(OC)c2[N+](=O)[O-])o1)C(F)(F)F, 14-membered ring, Zhan catalyst-1B, 6.85 mM, 70.0 °C, 5.0 h): 29%

Structure (SMILES): O=C1NNC(=O)[C@@](OCc2ccccc2)(C(F)(F)F)CCC=CCC2(CCCCC2)Nc2nc1c([N+](=O)[O-])cc2C(F)(F)F (mixture of isomers)
- ring closure, isolated yield (from C=CCC[C@@](OCc1ccccc1)(C(=O)NNC(=O)c1nc(NC2(CC=C)CCCCC2)c(C(F)(F)F)cc1[N+](=O)[O-])C(F)(F)F, 15-membered ring, Zhan catalyst-1B, 4.99 mM, 60.0 °C, 2.0 h): 70%

Structure (SMILES): O=[N+]([O-])c1cc(C(F)(F)F)c2nc1-c1nnc(o1)C(OCc1ccccc1)(C(F)(F)F)CCC=CCC1CCS(=O)(=O)N21 (mixture of isomers)
- ring closure, isolated yield (from C=CCCC(OCc1ccccc1)(c1nnc(-c2nc(N3C(CC=C)CCS3(=O)=O)c(C(F)(F)F)cc2[N+](=O)[O-])o1)C(F)(F)F, 14-membered ring, Zhan-1B, 4.72 mM, 75.0 °C, 6.0 h): 19%

Structure (SMILES): O=[N+]([O-])c1cc(C(F)(F)F)c2nc1-c1nnc(o1)C(OCc1ccccc1)(C(F)(F)F)CCC=CCCN2CCOCc1ccccc1 (mixture of isomers)
- ring closure, isolated yield (from C=CCCN(CCOCc1ccccc1)c1nc(-c2nnc(C(CCC=C)(OCc3ccccc3)C(F)(F)F)o2)c([N+](=O)[O-])cc1C(F)(F)F, 14-membered ring, Zhan-1B (25 mol%), 2.75 mM, 75.0 °C, 2.0 h): 59%

Structure (SMILES): O=[N+]([O-])c1cc(C(F)(F)F)c2nc1-c1nnc(o1)C(OCc1ccccc1)(C(F)(F)F)CCC=CCCN2Cc1ccccc1 (mixture of isomers)
- ring closure, isolated yield (from C=CCCN(Cc1ccccc1)c1nc(-c2nnc(C(CCC=C)(OCc3ccccc3)C(F)(F)F)o2)c([N+](=O)[O-])cc1C(F)(F)F, 14-membered ring, Zhan-1B, 1.77 mM, 75.0 °C, 3.0 h): 68%

Structure (SMILES): O=[N+]([O-])c1cc(C(F)(F)F)c2nc1-c1nnc(o1)C(OCc1ccccc1)(C(F)(F)F)CCC=CC[C@@H]1COCCN21 (mixture of isomers)
- ring closure, isolated yield (from C=CCCC(OCc1ccccc1)(c1nnc(-c2nc(N3CCOC[C@H]3CC=C)c(C(F)(F)F)cc2[N+](=O)[O-])o1)C(F)(F)F, 14-membered ring, Zhan-1B, 15.9 mM, 70.0 °C, 3.5 h): 56%

Structure (SMILES): O=[N+]([O-])c1cc(C(F)(F)F)c2nc1-c1nnc(o1)[C@@](OCc1ccccc1)(C(F)(F)F)CCC=CCC(Cc1ccccc1)N2 (mixture of isomers)
- ring closure, isolated yield (from C=CCC[C@@](OCc1ccccc1)(c1nnc(-c2nc(NC(CC=C)Cc3ccccc3)c(C(F)(F)F)cc2[N+](=O)[O-])o1)C(F)(F)F, 14-membered ring, Zhan catalyst-1B, 9.18 mM, 75.0 °C, 2.0 h): 19%

Structure (SMILES): O=[N+]([O-])c1cc(C(F)(F)F)c2nc1-c1nnc(o1)[C@@](OCc1ccccc1)(C(F)(F)F)CCC=CCC(c1ncccn1)N2 (mixture of isomers)
- ring closure, isolated yield (from C=CCC[C@@](OCc1ccccc1)(c1nnc(-c2nc(NC(CC=C)c3ncccn3)c(C(F)(F)F)cc2[N+](=O)[O-])o1)C(F)(F)F, 14-membered ring, Zhan catalyst-1B, 2.66 mM, 83.0 °C, 16.0 h): 49%

Structure (SMILES): O=[N+]([O-])c1cc(C(F)(F)F)c2nc1-c1nnc(o1)[C@@](OCc1ccccc1)(C(F)(F)F)CCC=CCC1(CCC1)N2 (mixture of isomers)
- ring closure, isolated yield (from C=CCC[C@@](OCc1ccccc1)(c1nnc(-c2nc(NC3(CC=C)CCC3)c(C(F)(F)F)cc2[N+](=O)[O-])o1)C(F)(F)F, 14-membered ring, Zhan catalyst-1B, 3.27 mM, 85.0 °C, 5.0 h): 68%

Structure (SMILES): O=[N+]([O-])c1cc(C(F)(F)F)c2nc1-c1nnc(o1)[C@@](OCc1ccccc1)(C(F)(F)F)CCC=CCC1(CCCC1)N2 (mixture of isomers)
- ring closure, isolated yield (from C=CCC[C@@](OCc1ccccc1)(c1nnc(-c2nc(NC3(CC=C)CCCC3)c(C(F)(F)F)cc2[N+](=O)[O-])o1)C(F)(F)F, 14-membered ring, Zhan catalyst-1B, 6.3 mM, 70.0 °C, 2.5 h): 27%

Structure (SMILES): O=[N+]([O-])c1cc(C(F)(F)F)c2nc1-c1nnc(o1)[C@@](OCc1ccccc1)(C(F)(F)F)CCC=CCC1(CCOC1)N2 (mixture of isomers)
- ring closure, isolated yield (from C=CCC[C@@](OCc1ccccc1)(c1nnc(-c2nc(NC3(CC=C)CCOC3)c(C(F)(F)F)cc2[N+](=O)[O-])o1)C(F)(F)F, 14-membered ring, Zhan catalyst-1B, 3.17 mM, 60.0 °C, 3.75 h): 82%

Structure (SMILES): O=[N+]([O-])c1cc(C(F)(F)F)c2nc1-c1nnc(o1)[C@@](OCc1ccccc1)(C(F)(F)F)CCC=CCC1(CCOCC1)N2 (mixture of isomers)
- ring closure, isolated yield (from C=CCC[C@@](OCc1ccccc1)(c1nnc(-c2nc(NC3(CC=C)CCOCC3)c(C(F)(F)F)cc2[N+](=O)[O-])o1)C(F)(F)F, 14-membered ring, Zhan catalyst-1B, 3.13 mM, 60.0 °C, 3.75 h): 80%

Structure (SMILES): O=[N+]([O-])c1cc(Cl)c2nc1-c1nnc(o1)C(OCc1ccccc1)(C(F)(F)F)CCC=CC[C@@H]1CCCN21 (mixture of isomers)
- ring closure, isolated yield (from C=CCCC(OCc1ccccc1)(c1nnc(-c2nc(N3CCC[C@H]3CC=C)c(Br)cc2[N+](=O)[O-])o1)C(F)(F)F, 14-membered ring, Zhan-1B, 5.74 mM, 70.0 °C, 3.0 h): 73%
